Source: patent US5827737A, “In vitro activation of cytotoxic T cells” (The Scripps Research Institute, priority 1996, dated 1998)
Where no end group is shown, it is not given here.

B1: ovalbumin protein: ovalbumin (Sigma Chem. Co.) osmotically loaded into the cells (protein, UniProt P01012 2-386, looked up)
Ovalbumin: GSIGAASMEFCFDVFKELKVHHANENIFYCPIAIMSALAMVYLGAKDSTRTQINKVVRFDKLPGFGDSIEAQCGTSVNVHSSLRDILNQITKPNDVYSFSLASRLYAEERYPILPEYLQCVKELYRGGLEPINFQTAADQARELINSWVESQTNGIIRNVLQPSSVDSQTAMVLVNAIVFKGLWEKAFKDEDTQAMPFRVTEQESKPVQMMYQIGLFRVASMASEKMKILELPFASGTMSMLVLLPDEVSGLEQLESIINFEKLTEWTSSNVMEERKIKVYLPRMKMEEKYNLTSVLMAMGITDVFSSSANLSGISSAESLKISQAVHAAHAEINEAGREVVGSAEAGVDAASVSEEFRADHPFLFCIKHIATNAVLFFGRCVSP

Each molecule was assayed on B3/CD8 T cell hybridoma (assay: Antigen presentation assay: IL-2 production by B3/CD8 measured with CTLL ^3 H thymidine incorporation). Conditions: peptide added to the culture medium, or protein osmotically loaded.

In the case of B1, the “T cell recognition of K^b -expressing Drosophila cells (IL-2 production)” value is reported as “no recognition occurred”.

These molecules were tested against T1, K^b sol (Mus musculus, UniProt P01901) (assay: biochemical). Conditions: not given.
T1 construct: K^b α1α2α3 domains (274 residues) and murine β2 microglobulin (99 residues); made in house; host or cells: Drosophila S2/M3 cells
T1 sequence (P01901 22-295): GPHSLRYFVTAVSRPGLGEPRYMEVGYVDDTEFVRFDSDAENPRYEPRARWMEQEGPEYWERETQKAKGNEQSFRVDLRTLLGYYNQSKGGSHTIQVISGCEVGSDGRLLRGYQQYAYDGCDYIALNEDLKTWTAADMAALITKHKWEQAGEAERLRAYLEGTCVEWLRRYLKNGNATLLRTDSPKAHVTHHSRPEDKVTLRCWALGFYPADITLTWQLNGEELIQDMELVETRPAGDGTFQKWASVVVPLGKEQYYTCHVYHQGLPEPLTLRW
T1 sequence (P01887 21-119 partner): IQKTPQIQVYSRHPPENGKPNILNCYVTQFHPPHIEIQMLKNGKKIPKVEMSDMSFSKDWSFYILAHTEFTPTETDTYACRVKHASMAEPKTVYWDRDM
Format: binding, murine

Going from DLRGYVYQGL [VSV-10N] to GYVYQGL [VSV-7, GYVYQGL], the Kd falls from 390 nM to 53 nM (7.4-fold). The second binds more tightly here.

LRGYVYQGL [VSV-9N] and RGYVYQGLK [VSV-9C] are within 1.5-fold of each other in Kd: 7.3 nM for the first, 6.9 nM for the second.

Work on RGYVYQGLKS [VSV-10C] yielded a Kd of 21 nM.

Same assay, conditions: read-out: KD

First: CC[C@H](C)[C@H](NC(=O)[C@@H](NC(=O)[C@@H](N)CO)[C@@H](C)CC)C(=O)N[C@@H](CC(N)=O)C(=O)N[C@@H](Cc1ccccc1)C(=O)N[C@@H](CCC(=O)O)C(=O)N[C@@H](CCCCN)C(=O)N[C@@H](CC(C)C)C(=O)O [OVA-8, reference compound]
Second: LESIINFEKL [OVA-10N]
The Kd of the first is 68-fold lower: 4.1 nM for the first, 280 nM for the second.

SIINFEKLT [OVA-9C] and SIINFEKLTE [OVA-10C] are within 1.5-fold of each other in Kd: 11 nM for the first, 14 nM for the second.
